Test results reported in ChEMBL document CHEMBL1671792, “Conformationally constrained farnesoid X receptor (FXR) agonists: heteroaryl replacements of the naphthalene” (Bioorg Med Chem Lett, 2011).

Experiments:
Mus musculus [1] = assay: Antidiabetic activity in diet-induced obese mouse assessed as serum glucose level at 10 mg/kg, po for 4 weeks (reference value: 316.5 +/-13.2 mg/dL); assay type: functional
Mus musculus [2] = assay: Antidiabetic activity in diet-induced obese mouse assessed as beta-hydroxybutyrate level at 10 mg/kg, po for 4 weeks (reference value: 1.7 +/-0.1 mg/dL); assay type: functional
Mus musculus [3] = assay: Antidiabetic activity in diet-induced obese mouse assessed as serum insulin level at 30 mg/kg, po for 4 weeks (reference value: […]); assay type: functional
Mus musculus [4] = assay: Antidiabetic activity in diet-induced obese mouse assessed as total cholesterol level at 30 mg/kg, po for 4 weeks (reference value: 140.0 +/-2.8 mg/dL); assay type: functional
Mus musculus [5] = assay: Antidiabetic activity in diet-induced obese mouse assessed as NEFA level at 30 mg/kg, po for 4 weeks (reference value: 0.46 +/-0.02 mEq/dL); assay type: functional
Mus musculus [6] = assay: Antidiabetic activity in diet-induced obese mouse assessed as serum insulin level at 100 mg/kg, po for 4 weeks (reference value: […]); assay type: functional
Mus musculus [7] = assay: Antidiabetic activity in diet-induced obese mouse assessed as total cholesterol level at 100 mg/kg, po for 4 weeks (reference value: 140.0 +/-2.8 mg/dL); assay type: functional
Mus musculus [8] = assay: Antidiabetic activity in diet-induced obese mouse assessed as triglyceride level at 100 mg/kg, po for 4 weeks (reference value: 54.4 +/-1.5 mg/dL); assay type: functional
Mus musculus [9] = assay: Antidiabetic activity in diet-induced obese mouse assessed as glycerol level at 100 mg/kg, po for 4 weeks (reference value: 11.0 +/-1.3 mg/dL); assay type: functional
[10] = target: T1, Bile acid receptor (Homo sapiens) (UniProt Q96RI1); assay: Agonist activity at human FXR LBD assessed as SRC1 peptide recruitment by FRET assay relative to GW 4064; assay type: functional
T1 sequence (whole entry): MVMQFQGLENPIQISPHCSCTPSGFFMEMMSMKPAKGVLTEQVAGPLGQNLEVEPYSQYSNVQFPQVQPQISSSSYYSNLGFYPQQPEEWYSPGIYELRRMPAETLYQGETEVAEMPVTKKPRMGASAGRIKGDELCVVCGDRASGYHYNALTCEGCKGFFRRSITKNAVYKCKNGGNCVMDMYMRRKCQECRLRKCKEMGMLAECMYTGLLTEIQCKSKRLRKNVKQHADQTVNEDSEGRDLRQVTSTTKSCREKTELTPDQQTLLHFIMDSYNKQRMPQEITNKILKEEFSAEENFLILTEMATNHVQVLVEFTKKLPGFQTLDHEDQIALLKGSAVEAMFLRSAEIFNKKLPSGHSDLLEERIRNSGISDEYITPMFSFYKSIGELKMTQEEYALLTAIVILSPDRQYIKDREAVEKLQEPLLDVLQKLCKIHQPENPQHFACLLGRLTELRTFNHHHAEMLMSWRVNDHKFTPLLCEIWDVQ

[11] = Half life in iv dosed mouse; assay type: ADME, organism-based; conditions: in vivo
[12] = Clearance in iv dosed Beagle dog; assay type: ADME, organism-based, Canis lupus familiaris; conditions: in vivo
[13] = Clearance in iv dosed cynomolgus monkey; assay type: ADME, organism-based, Macaca fascicularis; conditions: in vivo
[14] = Volume of distribution at steady state in iv dosed Beagle dog; assay type: ADME, organism-based, Canis lupus familiaris; conditions: in vivo, read-out: Vdss
[15] = Oral bioavailability in Beagle dog; assay type: ADME, organism-based, Canis lupus familiaris; conditions: in vivo
Mus musculus [16] = assay: Dose normalized AUC in orally dosed mouse; assay type: ADME, organism-based; conditions: in vivo, po
Canis familiaris = assay: Dose normalized AUC in orally dosed Beagle dog; assay type: ADME, organism-based, Canis lupus familiaris; conditions: in vivo, po
Cytochrome P450 1A2 = target: T2, Cytochrome P450 1A2 (Homo sapiens, UniProt P05177); assay: Inhibition of CYP1A2 in human liver microsome; assay type: microsomes
T2 sequence (P05177 whole entry): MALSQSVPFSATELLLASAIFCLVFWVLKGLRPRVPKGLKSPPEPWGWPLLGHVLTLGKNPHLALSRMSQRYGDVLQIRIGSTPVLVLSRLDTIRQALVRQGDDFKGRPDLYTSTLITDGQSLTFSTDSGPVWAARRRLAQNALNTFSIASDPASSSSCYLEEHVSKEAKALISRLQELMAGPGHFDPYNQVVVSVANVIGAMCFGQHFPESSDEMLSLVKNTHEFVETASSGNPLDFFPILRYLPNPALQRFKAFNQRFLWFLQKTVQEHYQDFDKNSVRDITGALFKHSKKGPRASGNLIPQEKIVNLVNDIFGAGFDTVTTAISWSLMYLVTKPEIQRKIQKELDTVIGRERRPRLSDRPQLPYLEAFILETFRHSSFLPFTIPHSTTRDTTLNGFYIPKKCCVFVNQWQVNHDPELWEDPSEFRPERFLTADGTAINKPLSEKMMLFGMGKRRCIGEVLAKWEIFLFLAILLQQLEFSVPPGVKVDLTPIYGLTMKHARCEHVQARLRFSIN

Homo sapiens [17] = organism: Homo sapiens; assay: Selectivity ratio of EC50 for human FXR to EC50 for human LXRbeta
Homo sapiens [18] = organism: Homo sapiens; assay: Selectivity ratio of EC50 for human FXR to EC50 for human PPARalpha
Homo sapiens [19] = organism: Homo sapiens; assay: Selectivity ratio of EC50 for human FXR to EC50 for human PPARgamma
Homo sapiens [20] = organism: Homo sapiens; assay: Selectivity ratio of EC50 for human FXR to EC50 for human RORalpha
Homo sapiens [21] = organism: Homo sapiens; assay: Selectivity ratio of EC50 for human FXR to EC50 for human RXRalpha
[22] = Permeability across MDCK cell membrane; assay type: ADME, cell-based, Canis lupus familiaris; conditions: dog
Mus musculus [23] = assay: Antidiabetic activity in diet-induced obese mouse assessed as change in body weight at 10 mg/kg, po for 4 weeks measured after 1 week (reference value: 30.3+/-0.8 g); assay type: functional
Mus musculus [24] = assay: Antidiabetic activity in diet-induced obese mouse assessed as change in body weight at 30 mg/kg, po for 4 weeks measured after 1 week (reference value: 29.6+/-0.9 g); assay type: functional
Mus musculus [25] = assay: Antidiabetic activity in diet-induced obese mouse assessed as change in body weight at 30 mg/kg, po for 4 weeks measured after 4 weeks (reference value: 29.6+/-0.9 g); assay type: functional
Mus musculus [26] = assay: Antidiabetic activity in diet-induced obese mouse assessed as change in body weight at 100 mg/kg, po for 4 weeks measured after 1 week (reference value: 29.1+/-0.8 g); assay type: functional
Mus musculus [27] = assay: Antidiabetic activity in diet-induced obese mouse assessed as change in body weight at 100 mg/kg, po for 4 weeks measured after 2 weeks (reference value: 29.1+/-0.8 g); assay type: functional

Compound `CC(C)c1onc(-c2c(Cl)cccc2Cl)c1COc1ccc(-c2ccc3nc(C(=O)O)ccc3c2)cc1` has an Activity (Mus musculus [1]) of 313 mg/dL, an Activity (Mus musculus [2]) of 1.7 mg/dL and an Activity (Mus musculus [3]) of 0.58 ng/mL. For the same compound, the Activity (Mus musculus [4]) was 99.6 mg/dL, the Activity (Mus musculus [5]) was 0.52 mEq/dL and the Activity (Mus musculus [6]) was 0.34 ng/mL. It also gave an Activity (Mus musculus [7]) of 87.9 mg/dL, an Activity (Mus musculus [8]) of 47.4 mg/dL and an Activity (Mus musculus [9]) of 9.7 mg/dL. The Activity [10] was 105%, the half-life [11] was 1.4 h and the clearance [12] was 4.4 mL/min/kg. For the same compound, the clearance [13] was 3.1 mL/min/kg, the Vd [14] was 0.31 L/kg and the bioavailability [15] was 23%. It also gave an AUC (Mus musculus [16]) of 310 ng·kg·h/mg/mL, an AUC (Canis familiaris) of 1260 ng·kg·h/mg/mL and an IC50 (Cytochrome P450 1A2) of 21 µM. For the same compound, the Ratio EC50 (Homo sapiens [17]) was 100, the Ratio EC50 (Homo sapiens [18]) was 100 and the Ratio EC50 (Homo sapiens [19]) was 100. For the same compound, the Ratio EC50 (Homo sapiens [20]) was 100, the Ratio EC50 (Homo sapiens [21]) was 100 and the Papp [22] was 18.3 ×10⁻⁶ cm/s. The Activity (Mus musculus [23]) was 29.4 g, the Activity (Mus musculus [24]) was 28.4 g and the Activity (Mus musculus [25]) was 27.3 g. For the same compound, the Activity (Mus musculus [26]) was 25.6 g and the Activity (Mus musculus [27]) was 23.2 g.
